Laboratory results as given in patent publication US20260021296A1, “ION[…]” (KANEKA CORPORATION, priority 2023, published 2026).

Assay: Evaluation of skin permeability of drug by iontophoresis in a vertical Franz cell
Format: in vitro ADME, hairless rat (HWY/Slc)
Description: The excised abdominal skin of a depilated male hairless rat (HWY/Slc, SPF, 5 weeks old) was punched into a 3.2 cm diameter circle and set in a vertical Franz cell. To the donor chamber of the Franz cell, 1.5 mL of a 0.5 wt % lanreotide acetate solution was added as a drug 31, and a zinc plate (0.5 cm×2 cm×0.5 mm) was immersed therein to form an anode 21. PBS was used as a receptor solution in the receptor chamber, and a silver/silver chloride rod (11 cm in length, 1 mm q in diameter) was inserted from the sampling port to form a cathode 22. The zinc plate and the silver/silver chloride rod were connected to the same power supply 10 and control unit 50 as those used in the skin irritability evaluation described above.
Example 4: A pulse current with a frequency of […], a period of 100 ms, a duty ratio of 50%, a rectangular waveform, and a current density of 0.35 mA/cm^2 was applied.
Comparative Example 6: Instead of a pulse current, a current with a substantially constant current value and a current density of 0.35 mA/cm^2 was applied.
Comparative Example 7: No current was applied.
In order to match the total time of current application (total amount of applied current), the current was applied for 6 hours in Example 4 and for 3 hours in Comparative Example 6. Example 4 and Comparative Examples 6 to 7 were all conducted with n=3.
Three items were evaluated: the cumulative amount of drug permeated, the permeation rate, and the relationship between the cumulative permeation amount and the quantity of electricity.
The receptor solution was sampled every hour, the amount of drug permeated through the skin was quantified by high-performance liquid chromatography (HPLC), and the above three items were evaluated with time. In Comparative Example 6, even after the end of the current application, the sampling was continued until 6 hours elapsed from the start of the test, as in Example 4 and Comparative Example 7. The HPLC measurement conditions are shown below.

CC(C)[C@@H]1NC(=O)[C@H](CCCCN)NC(=O)[C@@H](Cc2c[nH]c3ccccc23)NC(=O)[C@H](Cc2ccc(O)cc2)NC(=O)[C@@H](NC(=O)[C@H](N)Cc2ccc3ccccc3c2)CSSC[C@@H](C(=O)N[C@H](C(N)=O)[C@@H](C)O)NC1=O [lanreotide acetate]
time from start of test at which permeation of the drug through the skin was observed (Comparative Example 6: substantially constant current 0.35 mA/cm^2, applied 3 hours, 0.5 wt % solution, n=3): about 2 hours
drug skin permeability (rank among current conditions, FIGS. 8 and 9) (Comparative Example 7: no current applied): lowest
time from start of test until which permeation of the drug through the skin was not observed (Comparative Example 7: no current applied, 0.5 wt % solution, n=3): ≥ 4 h
drug skin permeability (rank among current conditions, FIGS. 8 and 9) (Example 4: pulse current 5 Hz, duty ratio 50%, 0.35 mA/cm^2): highest
time from start of test at which permeation of the drug through the skin was observed (Example 4: pulse current 5 Hz, duty ratio 50%, rectangular waveform, 0.35 mA/cm^2, applied 6 hours, 0.5 wt % solution, n=3): about 2 hours
cumulative permeation amount of Example 4 relative to Comparative Example 6 at the same quantity of electricity (final) (pulse current (Example 4) versus constant current (Comparative Example 6), 0.35 mA/cm^2, FIG. 10): ≥ 5 times
